Measured values taken from paper PMC11768584 (Viruses, 2025).
Like-named read-outs stand apart in the source and are kept apart here.

What was measured:
in vitro [1] = conditions: African green monkey, CC50 (CellTiter 96 Aqueous One)
LCMV vRNP = biological target: T1, LCMV vRNP (Lymphocytic choriomeningitis virus, UniProt P09992+P14240); type: cell-based
T1 construct: expressed in transfected cells; host or cells: HEK293T

rLCMV/GFP-P2A-NP [2] = assay: organism not typed; type: cell-based, LCMV; conditions: for EC50: Hec50, read-out: EC50, LCMV multiplication (GFP expression)
LASV vRNP = LASV vRNP (UniProt P13699+Q6GWS6); type: cell-based
[3] = tested on: r3JUNVCandid GFP/GFP (r3Can-GFP); type: cell-based, JUNV
rLCMV/GFP-P2A-NP [4] = type: cell-based, LCMV
rLCMV/GFP-P2A-NP [5] = tested on: rLCMV/GFP-P2A-NP; set-up: species or system LCMV
[6] = biological target: T2, LCMV GPC (GP2-mediated fusion) (Lymphocytic choriomeningitis virus, UniProt P09991); type: cell-based
T2 construct: expressed in transfected cells; host or cells: HEK293T
T2 sequence (P09991 266-498 limits assumed): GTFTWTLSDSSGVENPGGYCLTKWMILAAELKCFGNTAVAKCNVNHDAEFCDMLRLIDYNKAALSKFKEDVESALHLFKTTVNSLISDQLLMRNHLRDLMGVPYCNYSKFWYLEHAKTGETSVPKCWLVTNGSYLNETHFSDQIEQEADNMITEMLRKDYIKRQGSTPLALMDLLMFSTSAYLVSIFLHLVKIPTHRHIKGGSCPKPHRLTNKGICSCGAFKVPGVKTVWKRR
T2 sequence (P09991 59-265 limits assumed): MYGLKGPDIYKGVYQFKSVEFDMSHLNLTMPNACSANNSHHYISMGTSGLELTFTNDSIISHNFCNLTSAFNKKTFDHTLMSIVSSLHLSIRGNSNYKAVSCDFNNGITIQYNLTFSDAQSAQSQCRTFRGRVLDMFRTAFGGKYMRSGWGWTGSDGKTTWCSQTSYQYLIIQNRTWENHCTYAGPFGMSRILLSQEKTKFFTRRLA
T2 sequence (P09991 2-58 limits assumed): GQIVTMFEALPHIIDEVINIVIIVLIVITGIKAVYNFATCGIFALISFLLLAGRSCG

[7] = cited from earlier work
in vitro [8] = conditions: human
rLCMV/GFP-P2A-NP [9] = assay: organism not typed; type: cell-based, LCMV; conditions: for EC50: A549, read-out: EC50, LCMV multiplication (GFP expression)
mammarenavirus = conditions: cited from earlier work

Sequence of LASV vRNP (P13699 whole entry, looked up): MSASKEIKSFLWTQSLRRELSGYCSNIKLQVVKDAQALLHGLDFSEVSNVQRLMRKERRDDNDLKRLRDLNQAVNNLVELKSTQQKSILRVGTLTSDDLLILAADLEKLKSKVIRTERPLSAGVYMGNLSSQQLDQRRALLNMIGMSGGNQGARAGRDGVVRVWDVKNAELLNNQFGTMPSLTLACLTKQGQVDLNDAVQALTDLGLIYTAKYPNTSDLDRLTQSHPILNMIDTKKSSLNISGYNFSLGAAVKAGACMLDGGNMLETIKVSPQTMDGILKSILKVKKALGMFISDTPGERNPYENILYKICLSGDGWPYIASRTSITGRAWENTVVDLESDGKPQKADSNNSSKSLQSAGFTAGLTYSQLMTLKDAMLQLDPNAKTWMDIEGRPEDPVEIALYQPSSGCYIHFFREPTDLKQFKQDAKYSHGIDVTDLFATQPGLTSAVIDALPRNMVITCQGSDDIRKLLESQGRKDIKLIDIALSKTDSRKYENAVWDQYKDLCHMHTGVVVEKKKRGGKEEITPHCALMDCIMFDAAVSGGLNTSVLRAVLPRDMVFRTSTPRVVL
Sequence of LASV vRNP (Q6GWS6 whole entry, looked up): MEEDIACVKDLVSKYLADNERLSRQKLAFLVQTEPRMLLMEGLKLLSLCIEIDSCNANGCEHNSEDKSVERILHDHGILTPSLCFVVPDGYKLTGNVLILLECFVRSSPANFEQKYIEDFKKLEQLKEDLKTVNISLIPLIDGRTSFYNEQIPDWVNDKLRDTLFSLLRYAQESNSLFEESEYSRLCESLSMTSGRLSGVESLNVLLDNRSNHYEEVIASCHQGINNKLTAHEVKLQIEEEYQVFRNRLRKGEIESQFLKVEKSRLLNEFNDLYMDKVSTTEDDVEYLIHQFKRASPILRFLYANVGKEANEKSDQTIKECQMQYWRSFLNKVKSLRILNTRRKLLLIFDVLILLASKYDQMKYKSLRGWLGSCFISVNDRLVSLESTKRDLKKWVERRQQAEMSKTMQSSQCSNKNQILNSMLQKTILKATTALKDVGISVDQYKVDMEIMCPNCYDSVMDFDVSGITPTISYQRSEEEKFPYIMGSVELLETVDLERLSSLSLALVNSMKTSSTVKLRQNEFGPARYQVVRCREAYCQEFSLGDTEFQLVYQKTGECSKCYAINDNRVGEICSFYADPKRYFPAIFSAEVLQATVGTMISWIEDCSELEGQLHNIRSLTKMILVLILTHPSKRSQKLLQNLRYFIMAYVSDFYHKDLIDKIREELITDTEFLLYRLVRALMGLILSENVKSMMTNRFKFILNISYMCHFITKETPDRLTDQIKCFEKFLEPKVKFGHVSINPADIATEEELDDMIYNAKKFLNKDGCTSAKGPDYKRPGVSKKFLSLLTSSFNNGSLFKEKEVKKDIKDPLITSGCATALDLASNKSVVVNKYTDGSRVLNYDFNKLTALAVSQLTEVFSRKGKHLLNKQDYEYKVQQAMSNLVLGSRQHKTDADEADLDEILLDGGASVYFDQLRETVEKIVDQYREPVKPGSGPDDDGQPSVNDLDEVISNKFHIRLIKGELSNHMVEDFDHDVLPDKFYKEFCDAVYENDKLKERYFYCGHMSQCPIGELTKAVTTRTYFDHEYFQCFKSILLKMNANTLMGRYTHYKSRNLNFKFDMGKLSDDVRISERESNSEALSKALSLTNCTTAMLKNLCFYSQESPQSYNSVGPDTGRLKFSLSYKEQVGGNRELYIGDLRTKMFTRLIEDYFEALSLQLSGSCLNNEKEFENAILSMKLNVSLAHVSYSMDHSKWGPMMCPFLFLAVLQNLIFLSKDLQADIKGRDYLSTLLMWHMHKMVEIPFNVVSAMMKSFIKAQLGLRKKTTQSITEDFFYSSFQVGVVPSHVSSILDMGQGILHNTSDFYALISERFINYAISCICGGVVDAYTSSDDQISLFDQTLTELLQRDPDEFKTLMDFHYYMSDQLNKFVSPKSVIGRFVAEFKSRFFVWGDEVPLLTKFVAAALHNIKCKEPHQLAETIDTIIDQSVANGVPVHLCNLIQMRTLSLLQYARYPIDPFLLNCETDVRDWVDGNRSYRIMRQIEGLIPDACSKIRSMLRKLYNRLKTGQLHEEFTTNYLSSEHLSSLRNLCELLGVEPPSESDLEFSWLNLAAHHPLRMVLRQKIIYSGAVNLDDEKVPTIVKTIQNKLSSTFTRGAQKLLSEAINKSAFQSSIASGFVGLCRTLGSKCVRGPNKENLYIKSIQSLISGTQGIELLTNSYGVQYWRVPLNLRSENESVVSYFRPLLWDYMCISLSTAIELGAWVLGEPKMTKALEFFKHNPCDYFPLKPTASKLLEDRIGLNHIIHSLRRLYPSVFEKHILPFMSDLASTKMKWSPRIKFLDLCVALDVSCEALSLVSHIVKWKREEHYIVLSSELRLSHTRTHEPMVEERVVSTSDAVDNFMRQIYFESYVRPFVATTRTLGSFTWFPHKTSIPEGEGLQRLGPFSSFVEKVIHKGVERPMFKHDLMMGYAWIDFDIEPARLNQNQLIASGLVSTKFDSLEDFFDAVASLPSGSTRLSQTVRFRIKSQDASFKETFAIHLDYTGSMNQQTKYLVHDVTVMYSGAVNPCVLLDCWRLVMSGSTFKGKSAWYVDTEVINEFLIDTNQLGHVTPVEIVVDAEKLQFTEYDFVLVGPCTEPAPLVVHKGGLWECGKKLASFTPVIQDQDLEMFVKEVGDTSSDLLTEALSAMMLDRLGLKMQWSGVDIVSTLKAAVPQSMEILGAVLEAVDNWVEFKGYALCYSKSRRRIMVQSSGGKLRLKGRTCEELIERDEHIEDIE

SMILES: C[C@@H]1C[C@H]2[C@@H]3CCC4=CC(=O)C=C[C@]4(C)[C@@]3(F)[C@@H](O)C[C@]2(C)[C@@]1(O)C(=O)CO [DEX, dexamethasone]
- Toxicity on Vero cells (in words) (Vero cells): minimal toxicity
- CC50 (in vitro [1]): 55.7 µM
- Inhibition of LCMV MG activity (in words) (LCMV vRNP): minimal inhibitory activities
- Inhibitory activity on LCMV multiplication (in words) (rLCMV/GFP-P2A-NP [2]): very poor inhibitory activity
- Reduction in LASV MG-directed ZsGreen expression levels vs vehicle control (LASV vRNP): ~ 28%

SMILES: Fc1ccc(C(c2ccc(F)cc2)N2CCN(C/C=C/c3ccccc3)CC2)cc1 [FLN, Flunarizine]
- Reduction in r3Can-GFP (JUNV) virus peak titers vs VC [3]: > 1 log
- CC50 (in vitro [1]): > 100 µM
- Levels of viral (LCMV NP) RNA determined by RT-qPCR (rLCMV/GFP-P2A-NP [4]): reduced
- Virus cell propagation (GFP imaging) (rLCMV/GFP-P2A-NP [4]): reduced virus cell propagation
- Virucidal activity: effect on virion infectivity (rLCMV/GFP-P2A-NP [5]): did not significantly affect virion infectivity
- GP2-mediated pH-dependent fusion (syncytium formation) [6]: inhibition of GP2-mediated fusion
- Bound to plasma proteins [7]: More than 99%
- CC50 (in vitro [8]): 74.3 µM
- Inhibition of LCMV MG activity (in words) (LCMV vRNP): strongest inhibitory effect
- Inhibition of LCMV MG vRNP-directed reporter gene (GFP) expression (LCMV vRNP): ~ 75%
- Reduction in LASV MG-directed ZsGreen expression levels vs vehicle control (LASV vRNP): ~ 50%

SMILES: NCC1(CC(=O)O)CCCCC1 [Gabapentin, gabapentin]
- CC50 (in vitro [8]): > 100 µM
- Anti-LCMV activity of calcium channel blockers (in words) (rLCMV/GFP-P2A-NP [9]): did not exhibit significant anti-LCMV activity
- EC50, LCMV multiplication (GFP expression) (rLCMV/GFP-P2A-NP [9]): >Flat

SMILES: OC(c1cc(C(F)(F)F)nc2c(C(F)(F)F)cccc12)C1CCCCN1 (stereo not drawn) [MEF, mefloquine]
- CC50 (Vero cells; African green monkey): 27.3 µM
- CC50 (in vitro [1]): 29.1 µM
- Inhibition of LCMV MG activity (in words) (LCMV vRNP): minimal inhibitory activities
- selective index (SI) (rLCMV/GFP-P2A-NP [2]): 1.87
- EC50 (rLCMV/GFP-P2A-NP [2]): 15.5 µM
- Reduction in LASV MG-directed ZsGreen expression levels vs vehicle control (LASV vRNP): 5%

SMILES: [Cl][Ni][Cl] [Nickel Chloride, nickel chloride]
- CC50 (A549 cells): > 100 µM
- Anti-LCMV activity of calcium channel blockers (in words) (rLCMV/GFP-P2A-NP [9]): did not exhibit significant anti-LCMV activity

SMILES: COC(=O)C1=C(C)NC(C)=C(C(=O)OC)C1c1ccccc1[N+](=O)[O-] [Nifidipine, nifedipine]
- Anti-LCMV activity of calcium channel blockers (in words) (rLCMV/GFP-P2A-NP [9]): did not exhibit significant anti-LCMV activity
- EC50 (rLCMV/GFP-P2A-NP [9]): > 100 µM

SMILES: CN1CC(=O)N2[C@H](c3ccc4c(c3)OCO4)c3[nH]c4ccccc4c3C[C@@H]2C1=O [TAD, tadalafil]
- Toxicity on Vero cells (in words) (Vero cells): minimal toxicity
- CC50 (in vitro [1]): > 100 µM
- Inhibition of LCMV MG activity (in words) (LCMV vRNP): minimal inhibitory activities
- Inhibitory activity on LCMV multiplication (in words) (rLCMV/GFP-P2A-NP [2]): very poor inhibitory activity
- EC50 (rLCMV/GFP-P2A-NP [2]): > 100 µM
- Reduction in LASV MG-directed ZsGreen expression levels vs vehicle control (LASV vRNP): ~ 12%

SMILES: COc1ccc(CCN(C)CCCC(C#N)(c2ccc(OC)c(OC)c2)C(C)C)cc1OC (stereo not drawn) [Verapamil, verapamil]
- CC50 (in vitro [8]): > 100 µM
- Anti-LCMV activity of calcium channel blockers (in words) (rLCMV/GFP-P2A-NP [9]): did not exhibit significant anti-LCMV activity
- EC50 (rLCMV/GFP-P2A-NP [9]): > 100 µM

SMILES: C=C1CC[C@H](O)C/C1=C/C=C1\CCC[C@]2(C)[C@@H]([C@H](C)/C=C/[C@H](C)C(C)C)CC[C@@H]12 [Vit D, ergocalciferol]
- Toxicity on Vero cells (in words) (Vero cells): minimal toxicity
- CC50 (in vitro [1]): > 100 µM
- Inhibition of LCMV MG activity (in words) (LCMV vRNP): minimal inhibitory activities
- Inhibitory activity on LCMV multiplication (in words) (rLCMV/GFP-P2A-NP [2]): very poor inhibitory activity
- EC50 (rLCMV/GFP-P2A-NP [2]): > 100 µM
- Reduction in LASV MG-directed ZsGreen expression levels vs vehicle control (LASV vRNP): ~ 18%

SMILES: Clc1ccc(Cn2c(CN3CCCC3)nc3ccccc32)cc1 [clemizole]
- Anti-mammarenavirus activity (in words) (mammarenavirus): does not exhibit anti-mammarenavirus activity
